The values below come from patent publication US20190002436A1, “RESPIRATORY SYNCYTIAL VIRUS INHIBITORS” (MEDIVIR AB, priority 2015, published 2019).

For this test, the system named is RSV (Long). Briefly: RSV cytopathic effect (CPE)-based viral replication assay. The conditions noted are these: human respiratory syncytial virus, HEp-2, 72 h, read-out: EC50 (nm). Type of test: cell-based, respiratory syncytial virus (RSV). The essentials:
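HEp-2 cells, 2,500 per well in DMEM with 2% heat-inactivated FBS, treated with 10-point compound dilutions and infected with RSV Long at MOI 0.015. After 3 days at 37 °C, 5% CO2, viability read by CellTiter-Glo luminescence; EC50 derived from CPE data.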

The mark [1] stands for this setting: HEp-2 cells infected with RSV Long at MOI 0.015, 3 days at 37° C., cell viability by CellTiter-Glo luminescence.

Each structure is given as a SMILES string. Read-outs that look alike come from different tables or passages of the source.

Regarding `O=C(C1CCNCC1)N1CCC2(CC1)C(=O)N(Cc1ncc3ccccc3c1-c1cccnc1)c1cnccc12` [Example 140, 1-(piperidine-4-carbonyl)-1′-((4-(pyridin-3-yl)isoquinolin-3-yl)methyl)spiro[piperidine-4,3′-pyrrolo[2,3-c]pyridin]-2′(1′H)-one], the EC50 under setting [1] was 3.4 nM.

In the case of `NCCC(=O)N1CCC2(CC1)C(=O)N(Cc1ncc3ccccc3c1-c1cccnc1)c1cnccc12` [Example 141, 1-(3-aminopropanoyl)-1′-((4-(pyridin-3-yl)isoquinolin-3-yl)methyl)spiro[piperidine-4,3′-pyrrolo[2,3-c]pyridin]-2′(1′H)-one], under setting [1], the EC50 was found to be 11 nM. Consider `NCCCC(=O)N1CCC2(CC1)C(=O)N(Cc1ncc3ccccc3c1-c1cccnc1)c1cnccc12` [Example 142, 1-(4-aminobutanoyl)-1′-((4-(pyridin-3-yl)isoquinolin-3-yl)methyl)spiro[piperidine-4,3′-pyrrolo[2,3-c]pyridin]-2′(1′H)-one], for which the EC50 under setting [1] amounted to 5.8 nM.

`NCC(=O)N1CCC2(CC1)C(=O)N(Cc1ncc3ccccc3c1-c1cccnc1)c1cnccc12` [Example 143, 1-(2-aminoacetyl)-1′-((4-(pyridin-3-yl)isoquinolin-3-yl)methyl)spiro[piperidine-4,3′-pyrrolo[2,3-c]pyridin]-2′(1′H)-one]: the concentration for a half-maximal effect (EC50) under setting [1] is 10 nM. Take `COC(=O)N1CCC2(CC1)C(=O)N(Cc1ncc3ccccc3c1-c1cccnc1)c1cnccc12` [Example 144, Methyl 2′-oxo-1′-((4-(pyridin-3-yl)isoquinolin-3-yl)methyl)-1′,2′-dihydrospiro[piperidine-4,3′-pyrrolo[2,3-c]pyridine]-1-carboxylate]: the 50% effective concentration (EC50) was found to be 1.1 nM. With `NC1(CC(=O)N2CCC3(CC2)C(=O)N(Cc2ncc4ccccc4c2-c2cccnc2)c2cnccc23)CC1` [Example 145, 1-(2-(1-Aminocyclopropyl)acetyl)-1′-((4-(pyridin-3-yl)isoquinolin-3-yl)methyl)spiro[piperidine-4,3′-pyrrolo[2,3-c]pyridin]-2′(1′H)-one], the EC50 under setting [1] stood at 8.1 nM.

Regarding `CC(=O)N1CCC2(CC1)C(=O)N(Cc1ncc3ccccc3c1-c1cccnc1)c1cnccc12` [Example 146b, 1-Acetyl-1′-((4-(pyridin-3-yl)isoquinolin-3-yl)methyl)spiro[piperidine-4,3′-pyrrolo[2,3-c]pyridin]-2′(1′H)-one], under setting [1], the EC50 came out at 2.8 nM.

Take `NC1(C(=O)N2CC3(C2)C(=O)N(Cc2ncc4ccccc4c2-c2cccnc2)c2ccccc23)CC1` [Example 147, 1-(1-aminocyclopropanecarbonyl)-1′-((4-(pyridin-3-yl)isoquinolin-3-yl)methyl)spiro[azetidine-3,3′-indolin]-2′-one]: the EC50 under setting [1] was 18 nM. The same measure, in the same setting: the same measure for `O=C(N1CCOCC1)N1CC2(C1)C(=O)N(Cc1ncc3ccccc3c1-c1cccnc1)c1ccccc12` [Example 148b, 1-(morpholine-4-carbonyl)-1′-((4-(pyridin-3-yl)isoquinolin-3-yl)methyl)spiro[azetidine-3,3′-indolin]-2′-one]: 7.2 nM. Take `O=C(C1CCNCC1)N1CC2(C1)C(=O)N(Cc1ncc3ccccc3c1-c1cccnc1)c1ccccc12` [Example 149b, 1-(Piperidine-4-carbonyl)-1′-((4-(pyridin-3-yl)isoquinolin-3-yl)methyl)spiro[azetidine-3,3′-indolin]-2′-one]: under setting [1], the EC50 worked out at 6 nM. Still for that read-out and setting: the same measure for `NCCC(=O)N1CC2(C1)C(=O)N(Cc1ncc3ccccc3c1-c1cccnc1)c1ccccc12` [Example 150, 1-(3-Aminopropanoyl)-1′-((4-(pyridin-3-yl)isoquinolin-3-yl)methyl)spiro[azetidine-3,3′-indolin]-2′-one]: 6.6 nM; for `NCCCC(=O)N1CC2(C1)C(=O)N(Cc1ncc3ccccc3c1-c1cccnc1)c1ccccc12` [Example 151, 1-(4-Aminobutanoyl)-1′-((4-(pyridin-3-yl)isoquinolin-3-yl)methyl)spiro[azetidine-3,3′-indolin]-2′-one]: 2.7 nM. Still for that read-out and setting: the same measure for `NCC(=O)N1CC2(C1)C(=O)N(Cc1ncc3ccccc3c1-c1cccnc1)c1ccccc12` [Example 152, 1-(2-Aminoacetyl)-1′-((4-(pyridin-3-yl)isoquinolin-3-yl)methyl)spiro[azetidine-3,3′-indolin]-2′-one]: 12 nM.

As for `CC(=O)N1CC2(C1)C(=O)N(Cc1ncc3ccccc3c1-c1cccnc1)c1ccccc12` [Example 153, 1-acetyl-1′-((4-(pyridin-3-yl)isoquinolin-3-yl)methyl)spiro[azetidine-3,3′-indolin]-2′-one], the concentration for a half-maximal effect (EC50) is 5.5 nM. In the case of `CS(=O)(=O)N1CC2(C1)C(=O)N(Cc1ncc3ccccc3c1-c1cccnc1)c1ccccc12` [Example 154, 1-(Methylsulfonyl)-1′-((4-(pyridin-3-yl)isoquinolin-3-yl)methyl)spiro[azetidine-3,3′-indolin]-2′-one], under setting [1], the half-maximal effective concentration (EC50) came to 1.4 nM.

For `NC1(NC(=O)N2CC3(C2)C(=O)N(Cc2ncc4ccccc4c2-c2cccnc2)c2ccccc23)CC1` [Example 155, N-(1-aminocyclopropyl)-2′-oxo-1′-((4-(pyridin-3-yl)isoquinolin-3-yl)methyl)spiro[azetidine-3,3′-indoline]-1-carboxamide], the EC50 under setting [1] was determined as 2 nM.

On to `NC1(CC(=O)N2CC3(C2)C(=O)N(Cc2ncc4ccccc4c2-c2cccnc2)c2ccccc23)CC1` [Example 156, 1-(2-(1-aminocyclopropyl)acetyl)-1′-((4-(pyridin-3-yl)isoquinolin-3-yl)methyl)spiro[azetidine-3,3′-indolin]-2′-one], for which the EC50 under setting [1] came out at 13 nM. Still for that read-out and setting: the same measure for `COC(=O)N1CC2(C1)C(=O)N(Cc1ncc3ccccc3c1-c1ccc(C(N)C(F)(F)F)nc1)c1ccccc12` (centres unmarked) [Example 157b, methyl 1′-((4-(6-(1-amino-2,2,2-trifluoroethyl)pyridin-3-yl)isoquinolin-3-yl)methyl)-2′-oxospiro[azetidine-3,3′-indoline]-1-carboxylate]: 4 nM. The same measure, in the same setting: the same measure for `CS(=O)(=O)N1CCC2(CC1)C(=O)N(Cc1ncc3ccccc3c1-c1ccc(C(N)C(F)(F)F)nc1)c1cnccc12` (centres unmarked) [Example 158c, 1′-((4-(6-(1-amino-2,2,2-trifluoroethyl)pyridin-3-yl)isoquinolin-3-yl)methyl)-1-(methylsulfonyl)spiro[piperidine-4,3′-pyrrolo[2,3-c]pyridin]-2′(1′H)-one]: 3 nM; for `CS(=O)(=O)N1CCC2(CC1)C(=O)N(Cc1ncc3ccccc3c1-c1cnco1)c1cnccc12` [Example 159b, 1-(methylsulfonyl)-1′-((4-(oxazol-5-yl)isoquinolin-3-yl)methyl)spiro[piperidine-4,3′-pyrrolo[2,3-c]pyridin]-2′(1′H)-one]: 7.8 nM.

With `CS(=O)(=O)N1CCC2(CC1)C(=O)N(Cc1ncc3cc(Cl)ccc3c1-c1cccnc1)c1cnccc12` [Example 160c, 1′-((7-chloro-4-(pyridin-3-yl)isoquinolin-3-yl)methyl)-1-(methylsulfonyl)spiro[piperidine-4,3′-pyrrolo[2,3-c]pyridin]-2′(1′H)-one], the EC50 under setting [1] came to 1.3 nM.

Take `COC(=O)N1CC2(C1)C(=O)N(Cc1ncc3cc(Cl)ccc3c1-c1cccnc1)c1cnccc12` [Example 161c, methyl 1′-((7-chloro-4-(pyridin-3-yl)isoquinolin-3-yl)methyl)-2′-oxo-1′,2′-dihydrospiro[azetidine-3,3′-pyrrolo[2,3-c]pyridine]-1-carboxylate]: the EC50 under setting [1] was determined as 2.9 nM. As to `CS(=O)(=O)N1CC2(C1)C(=O)N(Cc1ncc3cc(Cl)ccc3c1-c1cccnc1)c1cnccc12` [Example 162, 1′-((7-chloro-4-(pyridin-3-yl)isoquinolin-3-yl)methyl)-1-(methylsulfonyl)spiro[azetidine-3,3′-pyrrolo[2,3-c]pyridin]-2′(1′H)-one], the EC50 under setting [1] is 4.8 nM. As for `COC(=O)N1CCC2(CC1)C(=O)N(Cc1ncc3cc(Cl)ccc3c1-c1cccnc1)c1cnccc12` [Example 164, Methyl 1′-((7-chloro-4-(pyridin-3-yl)isoquinolin-3-yl)methyl)-2′-oxo-1′,2′-dihydrospiro[piperidine-4,3′-pyrrolo[2,3-c]pyridine]-1-carboxylate], under setting [1], the EC50 worked out at 1.6 nM.

With `COC(=O)N1CCC2(CC1)C(=O)N(Cc1ncc3cc(Cl)ccc3c1-c1ccncc1)c1cnccc12` [Example 165b, Methyl 1′-((7-chloro-4-(pyridin-4-yl)isoquinolin-3-yl)methyl)-2′-oxo-1′,2′-dihydrospiro[piperidine-4,3′-pyrrolo[2,3-c]pyridine]-1-carboxylate], the concentration for a half-maximal effect (EC50) under setting [1] came out at 1.8 nM. `CS(=O)(=O)N(c1ccc(-c2c(CN3C(=O)C4(CCN(C(=O)C5(C(F)(F)F)CC5)CC4)c4ccncc43)ncc3ccccc23)cn1)S(C)(=O)=O` [Example 166d, N-(methylsulfonyl)-N-(5-(3-((2′-oxo-1-(1-(trifluoromethyl)cyclopropanecarbonyl)spiro[piperidine-4,3′-pyrrolo[2,3-c]pyridin]-1′(2′H)-yl)methyl)isoquinolin-4-yl)pyridin-2-yl)methanesulfonamide]: the half-maximal effective concentration (EC50) under setting [1] amounted to 2.5 nM. On the same count and under the same terms, the same measure for `COC(=O)N1CC2(C1)C(=O)N(Cc1ncc3ccccc3c1-c1ccc(NS(C)(=O)=O)nc1)c1cnccc12` [Example 167d, methyl 1′-((4-(6-(methylsulfonamido)pyridin-3-yl)isoquinolin-3-yl)methyl)-2′-oxo-1′,2′-dihydrospiro[azetidine-3,3′-pyrrolo[2,3-c]pyridine]-1-carboxylate]: 4.8 nM; for `CS(=O)(=O)N1CCC2(CC1)C(=O)N(Cc1ncc3cc(Cl)ccc3c1-c1cncs1)c1ccccc12` [Example 169b, 1-((7-chloro-4-(thiazol-5-yl)isoquinolin-3-yl)methyl)-1′-(methylsulfonyl)spiro[indoline-3,4′-piperidin]-2-one]: 1.3 nM; for `CC1(n2c(=O)n(Cc3ncc4ccccc4c3-c3ccc(C4(N)CC4)nc3)c3cnccc32)CC1` [Example 2001]: 9.5 nM.
